Measurements taken from patent publication US20130143929A1, “FUNGICIDAL IMIDAZOLES” (EI DU PONT DE NEMOURS AND COMPANY, priority 2010, published 2013).
Marks after values point to notes of the source that are not given here.

Assays:
Assay type in all cases: in vivo
[1] = tested on: Blumeria graminis f. sp. tritici (also known as Erysiphe graminis f. sp. tritici, the causal agent of wheat powdery mildew); test: Test D: wheat powdery mildew, preventive spray on wheat seedlings, visual disease rating; settings: for Test D rating (100 = 100% disease control, 0 = no disease control relative to the controls): wheat powdery mildew, preventive spray on wheat seedlings
Excerpt: (§1) General protocol for preparing test suspensions for Tests A-D: the test compounds were first dissolved in acetone in an amount equal to 3% of the final volume and then suspended at the desired concentration (in ppm) in acetone and purified water (50/50 mix by volume) containing 250 ppm of the surfactant Trem® 014 (polyhydric alcohol esters). The resulting test suspensions were then used in Tests A-D. Spraying a 200 ppm test suspension to the point of run-off on the test plants was the equivalent of a rate of 800 g/ha.
The test suspension was sprayed to the point of run-off on wheat seedlings. The following day the seedlings were inoculated with a spore dust of Blumeria graminis f. sp. tritici, (also known as Erysiphe graminis f. sp. tritici, the causal agent of wheat powdery mildew) and incubated in a growth chamber at 20° C. for 8 days, after which time visual disease ratings were made.
(§2) Results for Tests A-E are given in Table A. In the Table, a rating of 100 indicates 100% disease control and a rating of 0 indicates no disease control (relative to the controls). A dash (—) indicates no test results. An asterisk “*” next to the rating value indicates a 40 ppm test suspension was used.

[2] = tested on: Botrytis cinerea (the causal agent of tomato Botrytis); test: Test C: tomato Botrytis, preventive spray on tomato seedlings, visual disease rating; settings: for Test C rating (100 = 100% disease control, 0 = no disease control relative to the controls): tomato Botrytis, preventive spray on tomato seedlings
Excerpt: as §1
(§3) The test suspension was sprayed to the point of run-off on tomato seedlings. The following day the seedlings were inoculated with a spore suspension of Botrytis cinerea (the causal agent of tomato Botrytis) and incubated in a saturated atmosphere at 20° C. for 48 h, and then moved to a growth chamber at 24° C. for 3 days, after which time visual disease ratings were made.
as §2

[3] = tested on: Septoria tritici (the causal agent of wheat leaf blotch); test: Test B: wheat leaf blotch, preventive spray on wheat seedlings, visual disease rating; settings: for Test B rating (100 = 100% disease control, 0 = no disease control relative to the controls): wheat leaf blotch, preventive spray on wheat seedlings
Excerpt: as §1
as §3, with “wheat” for “tomato”, “Septoria tritici” for “Botrytis cinerea”, “wheat leaf blotch)” for “tomato Botrytis)”, “24°” for “20°”, “20°” for “24°”, “19” for “3”
as §2

[4] = tested on: Puccinia recondite f. sp. tritici (the causal agent of wheat leaf rust); test: Test A: wheat leaf rust, preventive spray on wheat seedlings, visual disease rating; settings: for Test A rating (100 = 100% disease control, 0 = no disease control relative to the controls): wheat leaf rust, preventive spray on wheat seedlings
Excerpt: as §1
as §3, with “wheat” for “tomato”, “Puccinia recondite f. sp. tritici” for “Botrytis cinerea”, “wheat leaf rust)” for “tomato Botrytis)”, “24” for “48”, “20°” for “24°”, “7” for “3”
as §2

[5] = asterisk: 40 ppm test suspension
[6] = no asterisk (standard test suspension concentration, not 40 ppm)
[7] = asterisk: 40 ppm test suspension, 100 = 100% disease control, 0 = no control

Row | SMILES | Test D rating (100 = 100% disease control, 0 = no disease control relative to the controls) [1, 5] | Test C rating (100 = 100% disease control, 0 = no disease control relative to the controls) [2, 5] | Test B rating (100 = 100% disease control, 0 = no disease control relative to the controls) [3, 5] | Test A rating (100 = 100% disease control, 0 = no disease control relative to the controls) [4, 5] | Test D rating (100 = 100% disease control, 0 = no disease control relative to the controls) [1, 6] | Test C rating (100 = 100% disease control, 0 = no disease control relative to the controls) [2, 6] | Test B rating (100 = 100% disease control, 0 = no disease control relative to the controls) [3, 6] | Test A rating (100 = 100% disease control, 0 = no disease control relative to the controls) [4, 6] | further results
1 | COc1ccc(C(O)c2c(Br)nc(Cl)n2-c2c(F)cccc2F)c(Cl)c1 (stereo not drawn) [Compound 287, 4-bromo-2-chloro-α-(2-chloro-4-methoxyphenyl)-1-(2,6-difluorophenyl)-1H-imidazole-5-methanol] | 97* % | 100* % | 100* % | 100* % |  |  |  |  | 
2 | Cc1ccc(C(O)c2c(Br)nc(C)n2-c2c(F)cccc2F)c(C)c1 (stereo not shown) [compound 145] | 98* % | 51* % | 100* % | 100* % |  |  |  |  | 
3 | Cc1nc(Br)c(C(O)c2ccc(F)cc2)n1-c1c(F)cccc1F (stereo not shown) [compound 133] | 64* % | 100* % | 100* % | 100* % |  |  |  |  | 
4 | COc1ccc(C(O)c2c(Br)nc(C)n2-c2ccc(F)cc2Cl)c(F)c1 (stereo not shown) [compound 302] | 64* % | 100* % | 100* % | 100* % |  |  |  |  | 
5 | COc1ccc(C(O)c2c(Br)nc(C)n2-c2ccc(F)cc2Cl)c(Cl)c1 (racemic) [compound 254] |  |  |  |  | 83% | 100% | 100% | 100% | 
6 | COc1cc(F)c(C(O)c2c(Br)nc(C)n2-c2ccc(F)cc2Cl)c(F)c1 (stereo not shown) [compound 364] |  |  |  |  | 95% | 100% | 100% | 100% | 
7 | Cc1ncc(C(O)c2c(F)cc(F)cc2F)n1-c1ccc(F)cc1Br (stereo not shown) [compound 174] |  |  |  |  | 0% | 0% | 35% | 88% | 
8 | COc1cc(F)c(C(O)c2cnc(C)n2-c2ccc(F)cc2F)c(F)c1 (racemic) [compound 257] |  |  |  |  | 0% | 0% | 24% | 92% | 
9 | Cc1nc(Br)c(C(O)c2ccc(F)cc2Br)n1-c1c(F)cccc1F (stereo not shown) [compound 384] |  |  |  |  |  |  |  |  | Test D rating (% disease control, wheat powdery mildew) [1, 7]: 72* %; Test C rating (% disease control, tomato Botrytis) [2, 7]: 65* %; Test B rating (% disease control, wheat leaf blotch) [3, 7]: 100* %; Test A rating (% disease control, wheat leaf rust) [4, 7]: 100* %
10 | COc1ccc(C(O)c2c(C)nc(Cl)n2-c2c(F)cccc2F)c(Cl)c1 (racemic) [compound 221] | 97* % | 99* % | 100* % | 100* % |  |  |  |  | 
11 | COc1ccc(-n2c(C(O)c3ccc(F)cc3Cl)cnc2C)c(OC)c1 (stereo not shown) [compound 214] | 0* % | 0* % | 0* % | 0* % |  |  |  |  | 
12 | COc1ccc(C(O)c2c(Cl)nc(C)n2-c2c(F)cccc2Cl)c(F)c1 (racemic) [compound 277] | 97* % | 100* % | 100* % | 100* % |  |  |  |  | 
13 | Cc1ncc(C(O)c2ccc(F)cc2Cl)n1-c1c(F)cc(F)cc1F (stereo not drawn) [Compound 167, α-(2-chloro-4-fluorophenyl)-2-methyl-1-(2,4,6-trifluorophenyl)-1H-imidazole-5-methanol] |  |  |  |  | 0% | 33% | 100% | 100% | 
14 | Cc1nc(Cl)c(C(O)c2ccc(F)cc2F)n1-c1ccc(F)cc1Cl (stereo not shown) [compound 58] |  |  |  |  | 72% | 100% | 100% | 100% | 
15 | Cc1cc(F)ccc1C(O)c1c(Cl)nc(Cl)n1-c1c(F)cc(F)cc1Cl (racemic) [compound 14] |  |  | 100* % |  | 100% | 99% |  | 100% | 
16 | Cc1cc(F)ccc1C(O)c1c(Cl)nc(Cl)n1-c1ccc(F)cc1Cl (single isomer, unassigned) [compound 51] |  |  |  |  | 47% | 99% | 100% | 100% | 
17 | Cc1nc(Br)n(-c2c(F)cc(Cl)cc2F)c1C(O)c1ccc(F)cc1F (racemic) [compound 299] | 87* % | 100* % | 100* % | 100* % |  |  |  |  | 
18 | Cc1ncc(C(O)c2c(F)cc(F)cc2F)n1-c1ccc(F)cc1F (stereo not shown) [compound 175] |  |  |  |  | 0% | 9% | 3% | 97% | 
19 | Cc1ncc(C(O)c2ccc(F)cc2Cl)n1-c1ccc(F)cc1Br (stereo not shown) [compound 189] |  |  |  |  | 27% | 99% | 100% | 100% | 
20 | COc1ccc(C(O)c2c(Cl)nc(C)n2-c2ccc(F)cc2Br)c(F)c1 (stereo not shown) [compound 314] | 47* % | 99* % | 100* % | 100* % |  |  |  |  | 
21 | OC(c1c(F)cc(F)cc1F)c1c(Cl)nc(Cl)n1-c1ccc(F)cc1Cl (stereo not shown) [compound 49] |  |  |  |  | 100% | 100% | 100% | 100% | 
22 | COc1cc(C)c(C(O)c2c(Br)ncn2-c2ccc(F)cc2Cl)cc1Br (racemic) [compound 229] | 0* % | 0* % | 36* % | 68* % |  |  |  |  | 
